# Data taken from patent publication US4772684A, “Peptides affecting blood pressure regulation” (Triton Biosciences, Inc., priority 1988, dated 1988).
# Non-standard residues stand in square brackets, D forms with d. Residues, ends and D or L forms follow the SMILES beside them.
# What was measured:
# angiotensin II receptors = assay: Inhibition of radiolabeled angiotensin II binding to isolated hepatic receptor; set-up: species or system rabbit; conditions: for ID50 (concentration of peptide that inhibited binding of radiolabeled angiotensin II by 50%): 0.25 nM [125I]angiotensin II, partially purified solubilized rabbit liver receptor, 60 minutes at 20° C.
# Procedure: Inhibition of angiotensin II binding to angiotensin II receptors by peptides of this invention was measured through the use of radioactive angiotensin II. Rabbit livers were homogenized and centrifuged in order to isolate particles sedimenting between 1,000 and 100,000×g. A portion of the particles which binds angiotensin II was solubilized with 1% digitonin, followed by ammonium sulfate fractionation between 49 and 65% saturation, followed by DEAE-cellulose chromatography at pH 7.5 using a linear gradient between 0.0 and 0.3 M KCl. The partially purified, solubilized receptor preparation bound 17 pmoles of angiotensin II per mg of protein when analyzed by Scatchard analysis, indicating a purity of approximately 0.1%.
# The assay for binding of angiotensin II to the receptor was as follows: The complete system (150 μl) contained 30 mM Tris-HCl, pH 7.5, 2.5 mM K2 EDTA, 0.2 mM PCMS, 0.25 nM [^125 I]angiotensin II (ca. 100,000 cpm), 100 μg BSA, 0.25% (v/v) Brij 99 (a polyoxyethylene ether of a fatty alcohol) and 30 μg of partially purified receptor. The reaction was initiated by addition of the receptor and samples were incubated for 60 minutes at 20° C. The reaction was terminated with 1 ml of cold 0.5% charcoal/0.05% dextran in 100 mM Tris-HCl, pH 7.5. Tubes were vortexed and then allowed to stand 10 minutes at 4° C., after which they were centrifuged and their supernatants, containing protein-bound angiotensin II, were counted.
# The complete system under these conditions regularly yields about 10,000 cpm of bound radioactivity. […] A sample including 20 nM cold angiotensin II was also run. Residual binding of radioactivity in this control was 35-45%. Certain peptides of this invention were dissolved in water, except for Peptide 5, which was dissolved in 3% DMSO, 0.04 M acetic acid, and 0.05 M HCl in water.
# [1] = system: isolated rabbit aorta strips; assay: Contractile response of isolated arterial smooth muscle strips in muscle bath; assay type: cell-based; conditions: cumulative addition
# Procedure: (§1) The peptides of this invention were tested in vitro, using an assay of isolated rabbit aorta strips mounted in a muscle bath.
# (§2) The left anterior descending coronary artery was excised from the heart and cut helically into a strip under a dissecting microscope. Strips were mounted vertically on a glass holder in a tissue bath containing 50 ml of PSS. The upper end of each strip was connected to a force transducer. The bathing medium was maintained at 37° C. and aerated with a mixture of 95% O2 -5% CO2. The pH of the PSS was 7.2 and the composition, in mmoles/l, was as follows: NaCl 130, KCl 14.7, KH2 PO4 1.18, MgSO4 7H2 O 1.17, CaCl2 -2H2 O 1.6, […] 14.9, dextrose 5.5, and CaNa2 EDTA 0.03. In all experiments, the passive force on each strip was adjusted to 2,000 mg.
# In one set of experiments, peptides were tested for ability to stimulate contractile response. Peptide was added to the bath in a step-wise, cumulative manner. Three peptides were tested: angiotensin II., Peptide 2 and Peptide 5. Muscle strips from between 2 and 6 rabbits were used to test each peptide.
# dog femoral vein = assay: Angiotensin II-caused relaxation of isolated dog venous strips; assay type: cell-based; conditions: angiotensin II 3×10^-7 M
# Procedure: Peptide 2 of this invention was tested in vitro, using an assay of isolated dog venous strips mounted in a muscle bath. Isolated segments of the dog femoral vein (n=2) were mounted in organ baths for measurement of isometric force generation. The conditions were as described in Example 3. The vascular segments were made to contract in response to prostaglandin F2a (8.5×10^-7 M). After the contraction reached a plateau, angiotensin II (3×10^-7 M) was added to the organ bath and the venous segments relaxed to approximately 50% of the response to prostaglandin F2a. This relaxation response to angiotensin II was inhibited 100% by saralasin ([…]) and by Peptide 2 (10^-5 M).
# rat hypertension model = assay: Blood pressure in anesthetized rats (rat hypertension model); assay type: in vivo
# Procedure: Peptide 2 of this invention was tested in vivo, using a rat hypertension model. Adult male rats (n=4) were anesthetized with sodium pentobarbital (50 mg/kg) and the left jugular vein was cannulated for infusion of drugs. Bolus injections of angiotensin II were delivered via the same venous catheter. The right carotid artery was cannulated for measurement of blood pressure. Injection of angiotensin II (1 ng) caused an increase in mean arterial blood pressure (^~ 50 mm Hg).
# [2] = system: isolated rabbit aorta strips; assay: Saralasin block of AII contraction and peptide-stimulated contraction in muscle strips; assay type: cell-based; conditions: saralasin 10^-8 M; AII 10^-9 M
# [3] = system: AII-stimulated contraction of isolated rabbit aorta strips; assay: Peptide effect on AII-stimulated contraction of arterial muscle strips; assay type: cell-based; conditions: AII 10^-9 M
# Procedure: as §1
# as §2, with “Strips” for “The left anterior descending coronary artery was excised from the heart and cut helically into a strip under a dissecting microscope. Strips”
# In another set of experiments, the ability of peptides to increase or decrease contraction caused by angiotensin II was measured.
# The muscle strips were bathed in PSS containing AII, 10^-9 M. Strips were allowed to contract until a steady-state contraction was reached (^~8 minutes), then peptide was added in a step-wise. cumulative manner. The change in muscle strip contraction was measured after each addition of peptide, and more peptide was not added until contraction had stabilized from the previous peptide addition (10-15 minutes). Each peptide was tested in strips from 2 or 4 rabbits.
# A positive value indicates increased contraction, while a negative value represents a decreased contractile response.
molecule,measurement,setting,value
"CC(C)[C@H](NC(=O)[C@@H]1CCCN1C(=O)[C@H](Cc1c[nH]cn1)NC(=O)[C@@H](NC(=O)[C@H](CC(=O)O)NC(=O)[C@@H](NC(=O)CNC(=O)[C@@H](N)CCC(N)=O)C(C)C)C(C)C)C(=O)O [Peptide 12, NH2GLNGLYVALASPVALHISPROVALCOOH] (H-QGVDVHPV-OH)",ID50 (concentration of peptide that inhibited binding of radiolabeled angiotensin II by 50%),angiotensin II receptors,"5,000 nM"
"Angiotensin II (DRVYIHPF; Angiotensin-2; UniProt P01019 25-32, looked up) [an octapeptide formed from angiotensin I by angiotensin converting enzyme; causes blood vessel constriction, reference compound]",ID50 (concentration of peptide that inhibited binding of radiolabeled angiotensin II by 50%),angiotensin II receptors,12 to 15 nM
same,Residual binding of radioactivity,angiotensin II receptors; 20 nM cold angiotensin II,35-45%
same,Average Baseline Response,[1]; 3 × 10^-8 M,"2,613 mg"
same,Average Baseline Response,[1]; 3 × 10^-9 M,"2,332 mg"
same,Average Baseline Response,[1]; 3 × 10^-10 M,991 mg
same,Average Baseline Response,[1]; 3 × 10^-11 M,0 mg
same,Average Baseline Response,[1]; 10^-8 M,"2,562 mg"
same,Average Baseline Response,[1]; 10^-9 M,"1,726 mg"
same,Average Baseline Response,[1]; 10^-10 M,0 mg
same,Average Baseline Response,[1]; 10^-11 M,0 mg
same,"Relaxation of venous segments, as % of the response to prostaglandin F2a",dog femoral vein; prostaglandin F2a 8.5×10^-7 M,approximately 50%
same,Increase in mean arterial blood pressure,"rat hypertension model; bolus injection 1 ng, jugular vein, anesthetized rats",~ 50 mm Hg
"CC[C@H](C)[C@H](NC(=O)[C@H](Cc1ccc(O)cc1)NC(=O)[C@@H](NC(=O)CNC(=O)[C@@H](N)CCCCN)C(C)C)C(=O)N[C@@H](Cc1c[nH]cn1)C(=O)N[C@@H](C)C(=O)N[C@@H](CC(C)C)C(N)=O [Peptide 7, NH2LYSGLYVALTYRILEHISALALEUCONH2] (H-KGVYIHAL-NH2)",ID50 (concentration of peptide that inhibited binding of radiolabeled angiotensin II by 50%),angiotensin II receptors,40 to 160 nM
CC[C@H](C)[C@H](NC(=O)[C@H](Cc1ccc(O)cc1)NC(=O)[C@@H](NC(=O)CNC(=O)[C@H](CCCCN)NC(C)=O)C(C)C)C(=O)N[C@@H](Cc1c[nH]cn1)C(=O)N[C@@H](C)C(=O)N[C@@H](CC(C)C)C(N)=O [Peptide 9] (Ac-KGVYIHAL-NH2),ID50 (concentration of peptide that inhibited binding of radiolabeled angiotensin II by 50%),angiotensin II receptors,"2,400-3,100 nM"
"CC(C)[C@H](NC(=O)[C@H](C)NC(=O)[C@H](Cc1ccc(O)cc1)NC(=O)[C@@H](NC(=O)[C@H](CC(=O)O)NC(=O)[C@@H](NC(=O)CNC(=O)[C@@H](N)CCCCN)C(C)C)C(C)C)C(=O)O [Peptide 1, NH2 - LYS-GLY-VAL-ASP-VAL-TYR-ALA-VAL-COOH] (H-KGVDVYAV-OH)",ID50 (concentration of peptide that inhibited binding of radiolabeled angiotensin II by 50%),angiotensin II receptors,"4,000 nM"
"CSCC[C@H](NC(=O)[C@H](CC(=O)O)NC(=O)[C@@H](NC(=O)CNC(=O)[C@@H](N)CCCCN)C(C)C)C(=O)N[C@@H](Cc1c[nH]cn1)C(=O)N[C@@H](C)C(=O)N[C@@H](CC(C)C)C(=O)O [Peptide 3, NH2LYSGLYVALASPMETHISALALEUCOOH] (H-KGVDMHAL-OH)",ID50 (concentration of peptide that inhibited binding of radiolabeled angiotensin II by 50%),angiotensin II receptors,"5,000 nM"
"CSCC[C@H](NC(=O)[C@H](Cc1ccc(O)cc1)NC(=O)[C@@H](NC(=O)CNC(=O)[C@@H](N)CCCCN)C(C)C)C(=O)N[C@@H](Cc1c[nH]cn1)C(=O)N[C@@H](CO)C(=O)N[C@@H](CC(C)C)C(=O)O [Peptide 13, NH2LYSGLYVALTYRMETHISSERLEUCOOH] (H-KGVYMHSL-OH)",ID50 (concentration of peptide that inhibited binding of radiolabeled angiotensin II by 50%),angiotensin II receptors,6 nM
CNCC(=O)N[C@@H](CCCN=C(N)N)C(=O)N[C@H](C(=O)N[C@@H](Cc1ccc(O)cc1)C(=O)N[C@H](C(=O)N[C@@H](Cc1cnc[nH]1)C(=O)N1CCC[C@H]1C(=O)N[C@@H](C)C(=O)O)C(C)C)C(C)C [saralasin],Inhibition of relaxation response to angiotensin II,dog femoral vein; 10^6 M (so in the source),100%
same,Effect on pressor activity of angiotensin II,"rat hypertension model; constant infusion 1 mg/min, angiotensin II 1 ng",inhibited the pressor activity of angiotensin II
same,Effect on AII contraction,[2],decreased AII contraction
"CC[C@H](C)[C@H](NC(=O)[C@H](Cc1ccc(O)cc1)NC(=O)[C@@H](NC(=O)CNC(=O)[C@@H](N)CCCCN)C(C)C)C(=O)N[C@@H](Cc1c[nH]cn1)C(=O)N[C@@H](C)C(=O)N[C@@H](CC(C)C)C(=O)O [Peptide 2, NH2LYSGLYVALTYRILEHISALALEUCOOH] (H-KGVYIHAL-OH)",ID50 (concentration of peptide that inhibited binding of radiolabeled angiotensin II by 50%),angiotensin II receptors,8 to 14 nM
same,Average Baseline Response,[1]; 3 × 10^-7 M,0 mg
same,Average Baseline Response,[1]; 3 × 10^-8 M,0 mg
same,Average Baseline Response,[1]; 3 × 10^-9 M,0 mg
same,Average Baseline Response,[1]; 3 × 10^-10 M,0 mg
same,Average Baseline Response,[1]; 10^-6 M,0 mg
same,Average Baseline Response,[1]; 10^-7 M,0 mg
same,Average Baseline Response,[1]; 10^-8 M,0 mg
same,Average Baseline Response,[1]; 10^-9 M,0 mg
same,Inhibition of relaxation response to angiotensin II,dog femoral vein; 10^-5 M,100%
same,Effect on baseline blood pressure,rat hypertension model; infusion 0.1 to 0.5 mg/min,did not alter baseline blood pressure
same,Effect on pressor responses to angiotensin II,"rat hypertension model; infusion 0.1 to 0.5 mg/min, angiotensin II 1 ng",did not influence pressor responses to angiotensin II
same,% Change from AII Response,[3]; peptide 3 × 10^-5 M,-73%
same,% Change from AII Response,[3]; peptide 3 × 10^-6 M,0%
same,% Change from AII Response,[3]; peptide 10^-4 M,-83%
same,% Change from AII Response,[3]; peptide 10^-5 M,-18%
same,% Change from AII Response,[3]; peptide 10^-6 M,0%
"CC[C@@H](C)[C@@H](NC(=O)[C@@H](Cc1ccc(O)cc1)NC(=O)[C@H](NC(=O)CNC(=O)[C@H](N)CCCCN)C(C)C)C(=O)N[C@H](Cc1c[nH]cn1)C(=O)N[C@H](C)C(=O)N[C@H](CC(C)C)C(=O)O [Peptide 11, NH2LYSGLYVALTYRILEHISALALEUCOOH] (H-[dK]G[dV][dY][dI][dH][dA][dL]-OH)",ID50 (concentration of peptide that inhibited binding of radiolabeled angiotensin II by 50%),angiotensin II receptors,"> 10,000 nM"
same,% Change from AII Response,[3]; peptide 3 × 10^-5 M,-7%
same,% Change from AII Response,[3]; peptide 3 × 10^-6 M,-3%
same,% Change from AII Response,[3]; peptide 10^-4 M,-33%
same,% Change from AII Response,[3]; peptide 10^-5 M,-5%
same,% Change from AII Response,[3]; peptide 10^-6 M,0%
